In patent US12565522B2, “Micropeptide HMMW and application thereof” (NANJING ANJI BIOTECHNOLOGY CO., LTD., priority 2019, dated 2026):
No end group written: not given here.

Columns and labels:
Type in all cases: cell-based, human
Conditions in all cases: 24 h
[1] = system: TE13 cells of esophageal squamous cell carcinoma; assay: transwell migration test
[2] = system: SW579 cells of thyroid cancer; assay: transwell migration test
[3] = system: A549 cells of lung cancer; assay: transwell migration test
[4] = system: MGC803 cells of stomach cancer; assay: transwell migration test
[5] = system: A431 cells of skin cancer; assay: transwell migration test
[6] = system: MDA-MB-231 cells of breast cancer; assay: transwell migration test
[7] = system: SCC4 cells of head and neck cancer; assay: transwell migration test
[8] = system: UOK262 cells of kidney cancer; assay: transwell migration test
[9] = system: TE13 cells of esophageal squamous cell carcinoma; assay: Matrigel transwell invasion test
Procedure, shortened: (§1)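 Each peptide dose (1, 4, 16 μM) was added with 1×10^5 cells/mL in blank medium to Matrigel-coated transwells over 10% FBS medium. After 24 h at 37 °C, 5% CO2, invaded cells were crystal violet-stained and counted; three independent repeats, t test versus 0 μM.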

[10] = system: SW579 cells of thyroid cancer; assay: Matrigel transwell invasion test
Procedure, shortened: as §1

[11] = system: A549 cells of lung cancer; assay: Matrigel transwell invasion test
Procedure, shortened: as §1

[12] = system: MGC803 cells of stomach cancer; assay: Matrigel transwell invasion test
Procedure, shortened: as §1

[13] = system: A431 cells of skin cancer; assay: Matrigel transwell invasion test
Procedure, shortened: as §1

[14] = system: MDA-MB-231 cells of breast cancer; assay: Matrigel transwell invasion test
Procedure, shortened: as §1

[15] = system: SCC4 cells of head and neck cancer; assay: Matrigel transwell invasion test
Procedure, shortened: as §1

[16] = system: UOK262 cells of kidney cancer; assay: Matrigel transwell invasion test
Procedure, shortened: as §1

Substance: MGSTGVPGFSPRRSSVEAKMQSTSCSVRKSSTVTAWPAVVLLLSWGQRRGG-OH [HMMW-VII]
- migration inhibition rate ([1]; dose 1 μM): 23.64%
- migration inhibition rate ([1]; dose 4 μM): 41.21%
- migration inhibition rate ([1]; dose 16 μM): 63.30%
- migration inhibition rate ([2]; dose 1 μM): 20.80%
- migration inhibition rate ([2]; dose 4 μM): 53.13%
- migration inhibition rate ([2]; dose 16 μM): 70.92%
- migration inhibition rate ([3]; dose 1 μM): 35.01%
- migration inhibition rate ([3]; dose 4 μM): 53.91%
- migration inhibition rate ([3]; dose 16 μM): 71.36%
- migration inhibition rate ([4]; dose 1 μM): 26.60%
- migration inhibition rate ([4]; dose 4 μM): 51.31%
- migration inhibition rate ([4]; dose 16 μM): 70.62%
- migration inhibition rate ([5]; dose 1 μM): 32.10%
- migration inhibition rate ([5]; dose 4 μM): 52.22%
- migration inhibition rate ([5]; dose 16 μM): 70.11%
- migration inhibition rate ([6]; dose 1 μM): 28.27%
- migration inhibition rate ([6]; dose 4 μM): 50.14%
- migration inhibition rate ([6]; dose 16 μM): 72.15%
- migration inhibition rate ([7]; dose 1 μM): 17.42%
- migration inhibition rate ([7]; dose 4 μM): 44.61%
- migration inhibition rate ([7]; dose 16 μM): 72.34%
- migration inhibition rate ([8]; dose 1 μM): 19.24%
- migration inhibition rate ([8]; dose 4 μM): 40.21%
- migration inhibition rate ([8]; dose 16 μM): 72.40%
- invasion inhibition rate ([9]; dose 1 μM): 25.11%
- invasion inhibition rate ([9]; dose 4 μM): 45.36%
- invasion inhibition rate ([9]; dose 16 μM): 67.52%
- invasion inhibition rate ([10]; dose 1 μM): 20.11%
- invasion inhibition rate ([10]; dose 4 μM): 43.72%
- invasion inhibition rate ([10]; dose 16 μM): 63.71%
- invasion inhibition rate ([11]; dose 1 μM): 32.22%
- invasion inhibition rate ([11]; dose 4 μM): 52.42%
- invasion inhibition rate ([11]; dose 16 μM): 64.02%
- invasion inhibition rate ([12]; dose 1 μM): 29.50%
- invasion inhibition rate ([12]; dose 4 μM): 54.34%
- invasion inhibition rate ([12]; dose 16 μM): 69.57%
- invasion inhibition rate ([13]; dose 1 μM): 34.70%
- invasion inhibition rate ([13]; dose 4 μM): 55.51%
- invasion inhibition rate ([13]; dose 16 μM): 69.24%
- invasion inhibition rate ([14]; dose 1 μM): 27.91%
- invasion inhibition rate ([14]; dose 4 μM): 49.55%
- invasion inhibition rate ([14]; dose 16 μM): 74.32%
- invasion inhibition rate ([15]; dose 1 μM): 19.70%
- invasion inhibition rate ([15]; dose 4 μM): 43.11%
- invasion inhibition rate ([15]; dose 16 μM): 70.84%
- invasion inhibition rate ([16]; dose 1 μM): 36.74%
- invasion inhibition rate ([16]; dose 4 μM): 56.26%
- invasion inhibition rate ([16]; dose 16 μM): 67.62%

Substance: MGSTYNKRHSPRRSSVEAKMQSTSCSVRKSSTVTAWPAVVLLLSWGQRRGG-OH [HMMW-III]
- migration inhibition rate ([1]; dose 1 μM): 22.76%
- migration inhibition rate ([1]; dose 4 μM): 41.29%
- migration inhibition rate ([1]; dose 16 μM): 65.32%
- migration inhibition rate ([2]; dose 1 μM): 18.83%
- migration inhibition rate ([2]; dose 4 μM): 50.04%
- migration inhibition rate ([2]; dose 16 μM): 71.92%
- migration inhibition rate ([3]; dose 1 μM): 33.01%
- migration inhibition rate ([3]; dose 4 μM): 54.93%
- migration inhibition rate ([3]; dose 16 μM): 72.42%
- migration inhibition rate ([4]; dose 1 μM): 25.61%
- migration inhibition rate ([4]; dose 4 μM): 52.45%
- migration inhibition rate ([4]; dose 16 μM): 74.80%
- migration inhibition rate ([5]; dose 1 μM): 32.13%
- migration inhibition rate ([5]; dose 4 μM): 54.27%
- migration inhibition rate ([5]; dose 16 μM): 72.21%
- migration inhibition rate ([6]; dose 1 μM): 27.06%
- migration inhibition rate ([6]; dose 4 μM): 51.34%
- migration inhibition rate ([6]; dose 16 μM): 74.38%
- migration inhibition rate ([7]; dose 1 μM): 16.81%
- migration inhibition rate ([7]; dose 4 μM): 43.94%
- migration inhibition rate ([7]; dose 16 μM): 74.01%
- migration inhibition rate ([8]; dose 1 μM): 16.39%
- migration inhibition rate ([8]; dose 4 μM): 41.38%
- migration inhibition rate ([8]; dose 16 μM): 70.47%
- invasion inhibition rate ([9]; dose 1 μM): 21.23%
- invasion inhibition rate ([9]; dose 4 μM): 41.81%
- invasion inhibition rate ([9]; dose 16 μM): 63.31%
- invasion inhibition rate ([10]; dose 1 μM): 18.63%
- invasion inhibition rate ([10]; dose 4 μM): 42.76%
- invasion inhibition rate ([10]; dose 16 μM): 63.89%
- invasion inhibition rate ([11]; dose 1 μM): 32.13%
- invasion inhibition rate ([11]; dose 4 μM): 52.30%
- invasion inhibition rate ([11]; dose 16 μM): 66.09%
- invasion inhibition rate ([12]; dose 1 μM): 25.11%
- invasion inhibition rate ([12]; dose 4 μM): 53.38%
- invasion inhibition rate ([12]; dose 16 μM): 67.61%
- invasion inhibition rate ([13]; dose 1 μM): 33.70%
- invasion inhibition rate ([13]; dose 4 μM): 53.21%
- invasion inhibition rate ([13]; dose 16 μM): 67.33%
- invasion inhibition rate ([14]; dose 1 μM): 28.91%
- invasion inhibition rate ([14]; dose 4 μM): 49.82%
- invasion inhibition rate ([14]; dose 16 μM): 68.36%
- invasion inhibition rate ([15]; dose 1 μM): 22.75%
- invasion inhibition rate ([15]; dose 4 μM): 48.24%
- invasion inhibition rate ([15]; dose 16 μM): 75.84%
- invasion inhibition rate ([16]; dose 1 μM): 34.37%
- invasion inhibition rate ([16]; dose 4 μM): 55.15%
- invasion inhibition rate ([16]; dose 16 μM): 67.23%

Substance: MGSTYNPGFSPRRSSVEAKMQSTSCSVRKSSTVTAWPAVVLLLSWGQRRGG-OH [HMMW-V]
- migration inhibition rate ([1]; dose 1 μM): 23.74%
- migration inhibition rate ([1]; dose 4 μM): 42.23%
- migration inhibition rate ([1]; dose 16 μM): 64.31%
- migration inhibition rate ([2]; dose 1 μM): 17.45%
- migration inhibition rate ([2]; dose 4 μM): 51.13%
- migration inhibition rate ([2]; dose 16 μM): 71.93%
- migration inhibition rate ([3]; dose 1 μM): 35.01%
- migration inhibition rate ([3]; dose 4 μM): 53.91%
- migration inhibition rate ([3]; dose 16 μM): 71.36%
- migration inhibition rate ([4]; dose 1 μM): 27.64%
- migration inhibition rate ([4]; dose 4 μM): 54.41%
- migration inhibition rate ([4]; dose 16 μM): 75.82%
- migration inhibition rate ([5]; dose 1 μM): 30.14%
- migration inhibition rate ([5]; dose 4 μM): 54.12%
- migration inhibition rate ([5]; dose 16 μM): 70.12%
- migration inhibition rate ([6]; dose 1 μM): 28.07%
- migration inhibition rate ([6]; dose 4 μM): 50.24%
- migration inhibition rate ([6]; dose 16 μM): 74.18%
- migration inhibition rate ([7]; dose 1 μM): 18.36%
- migration inhibition rate ([7]; dose 4 μM): 44.67%
- migration inhibition rate ([7]; dose 16 μM): 71.04%
- migration inhibition rate ([8]; dose 1 μM): 18.29%
- migration inhibition rate ([8]; dose 4 μM): 42.28%
- migration inhibition rate ([8]; dose 16 μM): 72.43%
- invasion inhibition rate ([9]; dose 1 μM): 20.29%
- invasion inhibition rate ([9]; dose 4 μM): 42.74%
- invasion inhibition rate ([9]; dose 16 μM): 66.69%
- invasion inhibition rate ([10]; dose 1 μM): 19.09%
- invasion inhibition rate ([10]; dose 4 μM): 44.23%
- invasion inhibition rate ([10]; dose 16 μM): 64.14%
- invasion inhibition rate ([11]; dose 1 μM): 31.19%
- invasion inhibition rate ([11]; dose 4 μM): 51.27%
- invasion inhibition rate ([11]; dose 16 μM): 64.25%
- invasion inhibition rate ([12]; dose 1 μM): 26.53%
- invasion inhibition rate ([12]; dose 4 μM): 50.24%
- invasion inhibition rate ([12]; dose 16 μM): 68.38%
- invasion inhibition rate ([13]; dose 1 μM): 32.19%
- invasion inhibition rate ([13]; dose 4 μM): 51.35%
- invasion inhibition rate ([13]; dose 16 μM): 69.29%
- invasion inhibition rate ([14]; dose 1 μM): 27.25%
- invasion inhibition rate ([14]; dose 4 μM): 48.37%
- invasion inhibition rate ([14]; dose 16 μM): 70.50%
- invasion inhibition rate ([15]; dose 1 μM): 20.34%
- invasion inhibition rate ([15]; dose 4 μM): 46.26%
- invasion inhibition rate ([15]; dose 16 μM): 74.71%
- invasion inhibition rate ([16]; dose 1 μM): 33.43%
- invasion inhibition rate ([16]; dose 4 μM): 53.27%
- invasion inhibition rate ([16]; dose 16 μM): 66.14%
